These results are taken from PubChem BioAssay AID624258 (Broad Institute, 2012).

Values joined by “and” are separate entries in the source; they are usually repeats but may differ in a detail not shown here. Equal values may be shown once. Active and inactive are the calls of the source. The rule behind the calls is not given here.

One assay can be described thus: Yeast SKN7 toxicity growth rescue counterscreen, Saccharomyces cerevisiae, plate reader, dose confirmatory (AID 624258).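 Note: growth read after three days of incubation at 30 °C; 0% = median of neutral control wells.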 The conditions noted are these: S. cerevisiae SKN7-toxicity growth rescue, plate reader; at 6.8 µM (top of the series). For orientation: The purpose of a counterscreen is to sort out artefacts and off-target activity.
With `Cc1ccc2c(c1C)-c1c(ccc(C)c1C)C(=O)C2=O`, the growth rescue activity is -4.89% (inactive).

As for `O=C(Nc1ccc(Cl)cc1)NC1CCCCC1Cc1ccco1` (stereo not drawn), the growth rescue activity is 76.3% (inactive).

Take `CC1(C)CC(=O)C(C2C3=C(CC(C)(C)CC3=O)Oc3c(Br)cc(Br)cc32)=C(O)C1` (stereo not drawn): the growth rescue activity was -21.5% (inactive).

On to `O=C(c1cc([N+](=O)[O-])cc([N+](=O)[O-])c1)N(Cc1nnc(-c2ccccc2Cl)o1)C1CC1`, for which the growth rescue activity is -38% (inactive).

As for `CCc1c(C2(O)CCCCC2)[nH]c2ccc(C(F)(F)F)cc12`, the growth rescue activity was 85.9% (inactive).

The same assay, now with this note: S. cerevisiae SKN7-toxicity growth rescue, plate reader; at 19.5 µM (top of the series).
As to `COc1ccc2[nH]c(=O)c(CN(Cc3cccnc3)C(=O)Nc3ccccc3)cc2c1`, the growth rescue activity was -61.1% (inactive).

Turning to `Cc1cccc(N=Cc2[nH]c3ccc(Br)c(Cl)c3c2O)c1`, the growth rescue activity was -14.7% (inactive).

Regarding `Cc1cc(C(F)(F)F)n2[nH]c(=O)c(N=Nc3ccccc3)c2n1`, the growth rescue activity is -58.6% (inactive).

With `O=C(Nc1nc(-c2ccccc2)c(-c2ccccc2)o1)c1ccc(F)cc1`, the growth rescue activity is -15.6% (inactive).

For the compound `Cc1nc2ccc(NC(=O)Cc3ccc4c(c3)OCCO4)cc2s1`, the growth rescue activity was 28.8% (inactive).

Turning to `Cn1c(CNc2ccccc2O)nc2ccccc21`, the growth rescue activity is -50% (inactive).

Regarding `O=C(O)c1c(NC(=O)N2CCCC2)sc2c1CCCC2`, the growth rescue activity was -88% (inactive).

With `Oc1cccc2ccc(Nc3ccccn3)nc12`, the growth rescue activity was 6.81% (inactive).

Regarding `Clc1ccc(C2=NCCN2)cc1`, the growth rescue activity was -65.4% (inactive).

For `O/N=C/c1ccccc1OCc1ccc(Cl)cc1`, the growth rescue activity is 10.8% (inactive).

Turning to `CCCCCCCCCCOC(=O)Cn1c(COc2ccccc2OC)[n+](C)c2ccccc21`, the growth rescue activity was -82.3% (inactive).

Regarding `CC1=C(C)C(=O)C(CCCCC#CCCCC#CCO)=C(C)C1=O`, the growth rescue activity is -34.8% (inactive).

For the compound `Oc1c(C(Nc2ccccn2)c2cccnc2)cc(Cl)c2cccnc12` (stereo not drawn), the growth rescue activity was -70.7% (inactive).

Turning to `Cc1ccc(C)c(/C=C/C(=O)c2ccccc(=O)c2O)c1`, the growth rescue activity is -77% (inactive).

For the compound `CCCCOC(=O)/C=C/c1ccc(OC(=O)OC)c(OC(=O)OC)c1`, the growth rescue activity was -13.9% (inactive).

With `Oc1ccc(N=Nc2ccc3c(c2)OCCO3)c2cccnc12`, the growth rescue activity is -42.4% (inactive).

For `Oc1c(Cl)c(Cl)c(Cl)c(Cl)c1Cl`, the growth rescue activity is -82.9% (inactive).

Take `Cc1cc(SC#N)cc(C)c1NC(=O)CCl`: the growth rescue activity is -87% (inactive).

Take `Cc1cc(OCc2cccc(S(=O)(=O)N3CCOCC3)c2)ccc1Cl`: the growth rescue activity is 66.7% (inactive).

On to `O=[N+]([O-])c1ccc(S(=O)(=O)c2ccccc2)nc1`, for which the growth rescue activity is 10.3% (inactive).

As for `N#Cc1c(-c2ccco2)c2c([nH]c1=S)CCCC2`, the growth rescue activity was -16.7% (inactive).

With `Cc1ccc(-n2ncc(Br)c(Br)c2=O)cc1`, the growth rescue activity is 23.6% (inactive).

With `FC(F)(F)c1cccc(N2CCN(C(=S)NC3CCCCC3)CC2)c1`, the growth rescue activity is 64.1% (inactive).

With `O=C(c1ccccc1)c1coc2c1C(=O)c1ccccc1C2=O`, the growth rescue activity is 18.2% (inactive).

In the case of `CC(=O)NC(c1cccc([N+](=O)[O-])c1)c1ccc2cccnc2c1O` (stereo not drawn), the growth rescue activity was -39.9% (inactive).

As for `CN(C)c1ccc(C=c2c3ccccc3n3c2cc(-c2ccc(Cl)cc2)[n+]3C)cc1`, the growth rescue activity was -52.4% (inactive).

As to `CCCCC(CC)c1nnc(NC(=O)c2cccs2)s1` (stereo not drawn), the growth rescue activity is -59.6% (inactive).

`Cc1cccc(NC(=S)NC(C)CCc2ccccc2)c1` (stereo not drawn): the growth rescue activity is -40.4% (inactive).

For the compound `O=C1C=C(NCCc2cc(Br)c(O)c(Br)c2)C(=O)c2ncccc21`, the growth rescue activity is 30.5% (inactive).

Take `CCCOc1ccc(CSCCNC(=S)Nc2ccccc2)cc1`: the growth rescue activity is 22% (inactive).

Turning to `O=c1c2ccccc2nc(-c2ccc(-c3ccccc3)cc2)n1-c1ccncc1`, the growth rescue activity is -56.1% (inactive).

Regarding `Cc1cccc(N2CCN(C(=O)C3COc4ccccc4O3)CC2)c1C` (stereo not drawn), the growth rescue activity was -49.4% (inactive).

`COC(=O)C1=C(C)NC(C)=C(C(=O)OCC(C)C)C1c1ccccc1[N+](=O)[O-]` (stereo not drawn): the growth rescue activity is -47.9% (inactive).

In the case of `CCOc1ccc(S(=O)(=O)n2cc(F)c(=O)[nH]c2=O)cc1`, the growth rescue activity was -4.21% (inactive).

With `CC1=NN(C(N)=S)C(=O)C1N=Nc1cccc(Cl)c1C` (stereo not drawn), the growth rescue activity is -42.1% (inactive).

Consider `C=CCN(CC=C)C(=S)NC(=O)c1ccc(C)c(Br)c1`, for which the growth rescue activity was -13.6% (inactive).

In the case of `CC(Nc1cccc2ccccc12)C(=O)N/N=C/c1ccccn1` (stereo not drawn), the growth rescue activity was -11.5% (inactive).

For `COC(=O)/C(=C/Nc1ccc(O)cc1)[N+](=O)[O-]`, the growth rescue activity is -10% (inactive).

With `CC12CNCC(C)(CN(C3(O)C(=O)Nc4ccc(Br)cc43)C1)C2=O` (stereo not drawn), the growth rescue activity was -39.9% (inactive).

For `CC1CCN(c2nc(-c3ccncc3)nc3ccccc23)CC1`, the growth rescue activity is -17.2% (inactive).

For `CCCCNc1c(-c2cccc(Sc3ccc(OC)cc3)c2)nc2ccccn12`, the growth rescue activity is -86.4% (inactive).

As to `O=C(COc1ccc([N+](=O)[O-])cc1)Nc1nc(-c2ccccn2)cs1`, the growth rescue activity was -63.6% (inactive).

Turning to `Oc1c(Br)cc(Br)cc1CNc1ccc(F)cc1`, the growth rescue activity was -92% (inactive).

Turning to `O=C(CN1CC[n+]2c(-c3cccs3)csc21)c1ccc(-c2ccccc2)cc1`, the growth rescue activity was -63.4% (inactive).

On to `O=C1C=C(NCc2ccccc2)c2ccccc2C1=O`, for which the growth rescue activity was 41.7% (inactive).

On to `O=C(NCCN1C(=O)S/C(=C\c2cccc(Cl)c2Cl)C1=O)C1=COCCO1`, for which the growth rescue activity was 13.6% (inactive).

`CCOC(=O)c1ccc(-c2ccc(C3Nc4ccccc4C(=O)N3O)o2)cc1` (stereo not drawn): the growth rescue activity was -4.76% (inactive).

For the compound `O=S(=O)(NCCc1csc(-c2cccnc2)n1)c1ccc(Cl)s1`, the growth rescue activity is -65.2% (inactive).

Turning to `CN1CCN(C(c2ccccn2)c2cc(Cl)c3cccnc3c2O)CC1` (stereo not drawn), the growth rescue activity is -64.1% (inactive).

Take `Cc1cccc(C)c1N1C(=O)C2ON(c3ccccc3)C(c3ccncc3)C2C1=O` (stereo not drawn): the growth rescue activity is -56.4% (inactive).

For the compound `Fc1ccccc1COc1ccc(Br)cc1CNCc1ccncc1`, the growth rescue activity is -7.59% (inactive).

Regarding `O=[N+]([O-])c1ccc(Sc2ncccn2)c([N+](=O)[O-])c1`, the growth rescue activity is -6.92% (inactive).

For the compound `CC(=O)Nc1cccc(NC(=O)CSc2ccc(-c3ccccn3)nn2)c1`, the growth rescue activity is -39.9% (inactive).

Regarding `CN(C(=O)COC(=O)c1ccc([N+](=O)[O-])cc1Cl)C1CCCCC1`, the growth rescue activity is 139% (inactive).

Take `O=C1OC(c2ccccc2)=NC12CC2c1ccc(Cl)cc1` (stereo not drawn): the growth rescue activity was -72.5% (inactive).

For the compound `Cn1ccc(=Nc2ccc(NC(=O)c3ccc(N=c4ccn(C)c5ccc([N+](=O)[O-])cc45)cc3)cc2)cc1`, the growth rescue activity is -76.1% (inactive).

Consider `S=C(NNc1ccc2ccccc2c1)NC1CCCCC1`, for which the growth rescue activity was -14.9% (inactive).

For `O=C(Nc1ccc(Cl)cc1C(=O)Nc1ccc(Br)cn1)c1ccco1`, the growth rescue activity is -90.7% (inactive).

As for `N#Cc1c(-c2ccc(Cl)cc2)n(O)c2ccccc12`, the growth rescue activity is -88.7% (inactive).

Turning to `COc1cc2c(c(OC)c1OC)-c1ccc(O)c(=O)cc1[C@@H](NC(C)=O)CC2`, the growth rescue activity was -29.6% (inactive).

Turning to `CC(C)N1CCN(c2ccc(OC[C@H]3CO[C@](Cn4cncn4)(c4ccc(Cl)cc4Cl)O3)cc2)CC1`, the growth rescue activity was -63.3% (inactive).

As to `CCCCCCSc1ccc(-c2nc3ccccn3c2NCCCC)cc1`, the growth rescue activity is -84.3% (inactive).

Turning to `C[C@@]12CCC3[C@@](CCC4[C@@]3(C)CCC[C@@]4(C)C(=O)NCc3ccccc3)(CC1=O)C2` (stereo partly drawn), the growth rescue activity is -51.4% (inactive).

For the compound `Clc1ccc(COC(Cn2ccnc2)c2ccc(Cl)cc2Cl)c(Cl)c1` (stereo not drawn), the growth rescue activity is -74.2% (inactive) and -75.5% (inactive).

`CC(C)N1CCN(c2ccc(OCC3COC(Cn4cncn4)(c4ccc(Cl)cc4Cl)O3)cc2)CC1` (stereo not drawn): the growth rescue activity was -56.9% (inactive).

With `Cc1cccc(Oc2cnn(C(C)(C)C)c(=O)c2Cl)c1`, the growth rescue activity is 1.29% (inactive).

Turning to `CCCOc1ccc(S(=O)(=O)n2cc(F)c(=O)[nH]c2=O)cc1`, the growth rescue activity is 0% (inactive).

Regarding `CCc1sc(C(=O)Nc2nc(-c3ccccn3)cs2)cc1C`, the growth rescue activity is -81% (inactive).

Take `CC(=N/O)/C(=N\O)c1ccc(C)o1`: the growth rescue activity was 3.21% (inactive).

With `O=C(/C(=N/N=C/c1ccc(O)c(O)c1O)c1ccccc1)c1ccccc1`, the growth rescue activity was -75.4% (inactive).

Consider `Cc1c(C(=O)O)cccc1-c1ccc(/C=N/Nc2ccc(Br)cc2)o1`, for which the growth rescue activity was -92.6% (inactive).

On to `COc1cccc2c1C(=O)c1c(O)c3c(c(O)c1C2=O)CC(O)(C(C)=NNC(=O)c1ccc(Cl)c(Cl)c1)CC3OC1CC(N)C(O)C(C)O1` (stereo not drawn), for which the growth rescue activity is 23.8% (inactive).

With `O=S(=O)(c1ccc(Cl)cc1)N1CCC2(CC1)OCCN2S(=O)(=O)c1cccs1`, the growth rescue activity was -46.5% (inactive).

With `OCCN(CCO)c1cc2c3ccccc3ccc2c2ccccc12`, the growth rescue activity was 9.38% (inactive).

Consider `CC(C)(C)c1ccc(S(=O)(=O)/N=C2\C=C(NS(=O)(=O)c3ccccc3)C(=O)c3ccccc32)cc1`, for which the growth rescue activity is -5.91% (inactive).

With `O=Cc1ccc(O)c2ncccc12`, the growth rescue activity is -72% (inactive).

Consider `Oc1c(Cl)cc(Cl)cc1/C=N/NC(=S)NC1CC2C=CC1C2` (stereo not drawn), for which the growth rescue activity is -42.5% (inactive).

As for `FC(F)(F)Oc1ccc(NC(=S)Nc2ccc(OC(F)(F)F)cc2)cc1`, the growth rescue activity was 26% (inactive).
